# Experimental data reported in patent US7846970B2, “Hydroxycitric acid derivatives and skin external preparations containing the same” (Showa Denko K.K., priority 2004, dated 2010).
# Assays:
# [1] = tested on: Human white preadipocytes; assay: Test (2) of use in combination with caffeine and the like, triglyceride accumulation; type: cell-based; conditions: 50 μM, 4 days
# Method: (§1) After differentiation into adipocytes had been observed, the culture medium was replaced with one that contained 50 μM of (b), or 100 μM of (i), or 50 μM of (j), or 50 μM and 100 μM of (b) and (i) respectively, or 50 μM and 50 μM of (b) and (j) respectively. The incubation was continued for another 4 days. The control was incubated using a culture medium that contained no test articles.
# [2] = tested on: Human white preadipocytes; assay: Cell survival rate (Test Example 6); type: cell-based; conditions: 4 days, 50 μM
# Method: as §1
# [3] = tested on: Human white preadipocytes
# Method: (§4) Human white preadipocytes (available from Zen-Bio Inc.) were disseminated in two T-25 flasks and were incubated at 37° C. and 5% CO2 using a white preadipocyte culture medium (PM-1, available from Zen-Bio Inc.). After several days, microscopic observation confirmed that the cells had been confluent, and the medium was replaced with a human white preadipocyte differentiation medium (DM-1, available from Zen-Bio Inc.). After three days, the differentiation medium was changed to a white adipocyte medium (AM-1, available from Zen-Bio Inc.). Incubation was continued while renewing half of the white adipocyte medium every three days.
# (§5) After differentiation into adipocytes had been observed, the culture media in the flasks were each replaced with one that contained 1 mM of the test article (a) or 0.05 mM of the test article (b). The incubation was continued for another 5 days.
# (§6) After 5 days of incubation, the cells were released from the flask bottom by adding trypsin and were collected by centrifugation (at 1,000 rpm for 5 minutes). The cells collected were washed two times with Dulbecco's PBS (−), and were transferred to 1.5 ml tubes, followed by freezing and thawing. […]
# (§7) The test article in the extract was determined by LC/MS, and the protein in the extract was determined by the Lowry method as described in Test Example 1.
# [4] = Skin permeation test (Test Example 1); type: in vitro ADME, minipig
# Method: The above test articles, each 0.5% by mass, were dissolved separately in Dulbecco's PBS (−).
# 2-cm square skin pieces of minipig (Charles River Laboratories Inc. (United States of America)) were placed in the Netwell (manufactured by Corning Incorporated), and assay rings (Teflon® rings with a center opening) on which a silicon sealant had been applied were pressed and fixed to the epidermis of the skin. Subsequently, 2 ml of a skin culture medium (TOYOBO CO., LTD.) was added to a multiwell plate, and the Netwell was set such that skin lower portions would be soaked. Each of the test article solutions, 0.1 ml, was slowly poured into the opening of assay ring; when no leakage was confirmed, the units were sealed with multiplate seals and were allowed to stand in an incubator at 37° C. and 5% carbon dioxide.
# After 4 hours, the test article solutions on the skin pieces were pipetted. The skin pieces were recovered from the Netwell, and distilled water in a washing bottle was poured thereover for washing. The assay rings were detached, and the central portions that had contacted with the solution were punched out with an 8 mm biopsy punch. The excised skin pieces were transferred to 1.5 ml tubes, and 1 ml of 0.5% trypsin solution was added to each tube. The trypsin solution was caused to permeate the skin piece for a day and a night at 4° C.
# Next day, the trypsin solution was removed, and the skin pieces were washed three times each with 1 ml of distilled water and were heated in an incubator at 37° C. for 5 minutes, resulting in release of the epidermis. The epidermis that had been released and been floating was peeled with tweezers to separate the skin piece into the epidermis and the dermis. The epidermis and dermis were separately transferred to new 1.5 ml tubes and were heated in an incubator at 37° C. for 30 minutes.
# Thereafter, the epidermis and the dermis were fed with 0.1 ml and 0.5 ml of distilled water, respectively, followed by freezing and thawing. […] Thus, a tissue extract was obtained.
# 400 μl of the reagent 4 was added to a sample tube containing 20 μl of the sample solution or the standard sample solution, followed by mixing. The mixture was allowed to stand at room temperature for at least 15 minutes. Thereafter, 40 μl of the reagent 3 was added and mixed together, and the mixture was allowed to stand at room temperature for at least 30 minutes. The absorbance at 750 nm was measured with a spectrophotometer, and the protein concentration in the sample solution was determined using a calibration curve obtained with the standard sample.
# [5] = tested on: Mouse 3T3-F442A cells; assay: Triglyceride accumulation test (1), oil red staining; type: cell-based; conditions: 100 μM, 4 days, differentiated 3T3-F442A adipocytes
# Method: Mouse 3T3-F442A cells (available from DAINIPPON PHARMACEUTICAL CO., LTD.) were disseminated on a 96-well microplate and were incubated at 37° C. and 5% CO2 over a period of 2 weeks using a DMEM culture medium (available from Invitrogen) containing 10% by mass of FCS.
# After differentiation of most cells into adipocytes had been observed with a microscope, the culture medium was replaced with one that contained 100 μM of any one of the test articles (a) to (c). The incubation was continued for another 4 days. The control was incubated using a culture medium that contained no test articles.
# After 4 days of incubation, the cells were washed three times with Dulbecco's PBS (−). The triglyceride accumulated in the cells was determined by oil red staining.
# [6] = tested on: Human white preadipocytes; assay: Cell survival rate, alamar blue (Test Example 3); type: cell-based; conditions: 4 days
# Method: (§2) After differentiation of most cells into adipocytes had been observed with a microscope, the culture medium was replaced with one that contained 100 μM or 1 mM of the test article (a), or 10 μM, 25 μM or 50 μM of the test article (b). The incubation was continued for another 4 days. The control was incubated using a culture medium that contained no test articles.
# (§3) After 4 days of incubation, the cells were washed three times with Dulbecco's PBS (−). The triglyceride accumulated in the cells was determined by oil red staining. The cell survival rate was measured by a calorimetric method (570 nm) using alamar blue reagent (manufactured by Molecular Probe).
# [7] = tested on: Human white preadipocytes; assay: Triglyceride accumulation test (2), oil red staining; type: cell-based; conditions: 4 days
# Method: as §2, §3
# [8] = tested on: Human white preadipocytes; assay: Test for confirmation of breakdown of hydroxycitric acid derivative (amounts in cell extract, LC/MS); conditions: 1 mM test article, 5 days, human adipocytes
# Method: as §4, §5, §6, §7
# [9] = tested on: Mouse 3T3-F442A cells; assay: Triglyceride accumulation test (3): lowest concentration at which TG/cell survival ratio is not more than 80; type: cell-based; conditions: lowest tested concentration with TG/cell survival ratio not more than 80 (control 100); 4 days
# Method: Likewise in Test Example 2, mouse 3T3-F442A cells (available from DAINIPPON PHARMACEUTICAL CO., LTD.) were disseminated on a 96-well microplate and were incubated at 37° C. and 5% CO2 over a period of 2 weeks using a DMEM culture medium (available from Invitrogen) containing 10% by mass of FCS.
# After differentiation of most cells into adipocytes had been observed with a microscope, the culture medium was replaced with one that contained any one of the test articles (a), (b) and (d) to (h) in an amount of 40 μM, 50 μM, 100 μM, 150 μM, 200 μM, 300 μM, 400 μM, 500 μM or […]. The incubation was continued for another 4 days. The control was incubated using a culture medium that contained no test articles.
# After 4 days of incubation, the cells were washed three times with Dulbecco's PBS (−). The triglyceride accumulated in the cells, and the cell survival rate were measured in similar manners as in Test Example 3.
# [10] = tested on: Mouse 3T3-F442A cells; assay: Test (1) of use in combination with caffeine, triglyceride accumulation; type: cell-based; conditions: 0.05 mM (b) alone, which is the control (100%); 4 days
# Method: Mouse 3T3-F442A cells were incubated in a similar manner as in Test Example 2. After differentiation into adipocytes had been observed, the culture medium was replaced with one that contained 0.05 mM and 0.1 mM of the test article (b) and the test article (i), respectively. The incubation was continued for another 4 days. The control was incubated using a culture medium that contained 0.05 mM of the test article (b).
# After 4 days of incubation, the triglyceride accumulated in the cells was determined in a similar manner as in Test Example 2.
# [11] = dermis, test article 0.5% by mass in Dulbecco's PBS (-), 0.1 ml, 4 hours, 37°C
# [12] = epidermis, test article 0.5% by mass in Dulbecco's PBS (-), 0.1 ml, 4 hours, 37°C
molecule,measurement,setting,value
"C[N+](C)(C)C[C@H](O)CC(=O)[O-].Cl [(j), L-carnitine hydrochloride, reference compound]",(1/2) × 100 (triglyceride amount / cell survival rate),[1],91
same,Accumulated triglyceride amount (% relative to control): 1,[1],93 % relative to control
same,Cell survival rate (% relative to control): 2,[2],102 % relative to control
CCCCCCCCCCCCCCCC(=O)OC(CC(=O)O)(C(=O)O)C(O)C(=O)O (centres unmarked) [hydroxycitric acid-2-palmitate],Breakdown within adipocytes (in words),[3],broken down within adipocytes to generate hydroxycitric acid
"Hydroxycitric acid calcium salt [(a), reference compound]",Determined value: amount of hydroxycitric acid in dermis,[4]; [11],0.2 nmol/mg skin protein
same,Determined value: amount of hydroxycitric acid in epidermis,[4]; [12],0.4 nmol/mg skin protein
same,Accumulated triglyceride amount (% relative to control),[5],98 % relative to control
same,Cell survival rate (% relative to control): 2,[6]; 100 μM,88 % relative to control
same,Cell survival rate (% relative to control): 2,[6]; 1 mM,94 % relative to control
same,(1/2) × 100 (triglyceride amount / cell survival rate),[7]; 100 μM,98
same,Accumulated triglyceride amount (% relative to control): 1,[7]; 100 μM,86 % relative to control
same,(1/2) × 100 (triglyceride amount / cell survival rate),[7]; 1 mM,85
same,Accumulated triglyceride amount (% relative to control): 1,[7]; 1 mM,80 % relative to control
same,Determined value: amount of hydroxycitric acid in cell extract,[8],0.6 nmol/mg protein
same,Concentration for 20% reduction of TG amount relative to control,[9],1e+06 µM
Hydroxycitric acid monomethyl ester-2-palmitate sodium salt [(c)],Accumulated triglyceride amount (% relative to control),[5],84 % relative to control
Hydroxycitric acid-2-behenate sodium salt [(h)],Concentration for 20% reduction of TG amount relative to control,[9],40 µM
Hydroxycitric acid-2-caprate sodium salt [(e)],Concentration for 20% reduction of TG amount relative to control,[9],200 µM
Hydroxycitric acid-2-laurate sodium salt [(f)],Concentration for 20% reduction of TG amount relative to control,[9],150 µM
Hydroxycitric acid-2-myristate sodium salt [(g)],Concentration for 20% reduction of TG amount relative to control,[9],100 µM
Hydroxycitric acid-2-octanoate sodium salt [(d)],Concentration for 20% reduction of TG amount relative to control,[9],200 µM
Hydroxycitric acid-2-palmitate sodium salt [(b)],Determined value: amount of hydroxycitric acid-2-palmitate in dermis,[4]; [11],3.8 nmol/mg skin protein
same,Determined value: amount of hydroxycitric acid-2-palmitate in epidermis,[4]; [12],3.4 nmol/mg skin protein
same,Skin permeation (in words),"[4]; minipig skin, compared with (a)",can permeate the skin deeper into the dermis layer than hydroxycitric acid calcium salt (a)
same,Accumulated triglyceride amount (% relative to control),[5],52 % relative to control
same,(1/2) × 100 (triglyceride amount / cell survival rate),[1],75
same,Accumulated triglyceride amount (% relative to control): 1,[1],75 % relative to control
same,Cell survival rate (% relative to control): 2,[6]; 10 μM,100 % relative to control
same,Cell survival rate (% relative to control): 2,[6]; 25 μM,101 % relative to control
same,Cell survival rate (% relative to control): 2,[6]; 50 μM,98 % relative to control
same,(1/2) × 100 (triglyceride amount / cell survival rate),[7]; 10 μM,78
same,Accumulated triglyceride amount (% relative to control): 1,[7]; 10 μM,78 % relative to control
same,(1/2) × 100 (triglyceride amount / cell survival rate),[7]; 25 μM,71
same,Accumulated triglyceride amount (% relative to control): 1,[7]; 25 μM,72 % relative to control
same,(1/2) × 100 (triglyceride amount / cell survival rate),[7]; 50 μM,66
same,Accumulated triglyceride amount (% relative to control): 1,[7]; 50 μM,65 % relative to control
same,Accumulated triglyceride amount (% relative to control),[10],100 % relative to control
same,Concentration for 20% reduction of TG amount relative to control,[9],50 µM
